Experimental data as given in ChEMBL document CHEMBL5291721, “A preclinical secondary pharmacology resource illuminates target-adverse drug reaction associations of marketed drugs” (Nat Commun, 2023).
Several values for one entry are separate records, joined by “and”; a condition that tells them apart may be missing. Identical values can stand only once.

Tests used:
[1] = biological target: T1, 5-hydroxytryptamine receptor 3A (Homo sapiens, UniProt P46098); assay type: functional
T1 sequence (P46098 whole entry): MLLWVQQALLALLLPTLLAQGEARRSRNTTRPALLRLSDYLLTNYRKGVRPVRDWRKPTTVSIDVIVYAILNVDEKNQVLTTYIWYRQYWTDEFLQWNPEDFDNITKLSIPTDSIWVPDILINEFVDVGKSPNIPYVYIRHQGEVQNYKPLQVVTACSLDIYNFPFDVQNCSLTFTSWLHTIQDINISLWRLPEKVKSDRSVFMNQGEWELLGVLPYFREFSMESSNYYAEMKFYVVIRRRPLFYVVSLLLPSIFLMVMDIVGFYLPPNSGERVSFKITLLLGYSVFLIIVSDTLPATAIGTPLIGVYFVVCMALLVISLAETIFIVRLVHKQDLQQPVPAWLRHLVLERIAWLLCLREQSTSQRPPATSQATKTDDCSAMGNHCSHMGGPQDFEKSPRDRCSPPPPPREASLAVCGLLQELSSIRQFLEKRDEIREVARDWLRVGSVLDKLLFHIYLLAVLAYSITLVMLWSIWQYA

D(1A) dopamine receptor = D(1A) dopamine receptor (Homo sapiens, UniProt P21728); assay type: functional, cell-based
[2] = biological target: T2, Prostaglandin G/H synthase 1 (Rattus norvegicus, UniProt Q63921); assay type: functional
T2 sequence (Q63921 whole entry): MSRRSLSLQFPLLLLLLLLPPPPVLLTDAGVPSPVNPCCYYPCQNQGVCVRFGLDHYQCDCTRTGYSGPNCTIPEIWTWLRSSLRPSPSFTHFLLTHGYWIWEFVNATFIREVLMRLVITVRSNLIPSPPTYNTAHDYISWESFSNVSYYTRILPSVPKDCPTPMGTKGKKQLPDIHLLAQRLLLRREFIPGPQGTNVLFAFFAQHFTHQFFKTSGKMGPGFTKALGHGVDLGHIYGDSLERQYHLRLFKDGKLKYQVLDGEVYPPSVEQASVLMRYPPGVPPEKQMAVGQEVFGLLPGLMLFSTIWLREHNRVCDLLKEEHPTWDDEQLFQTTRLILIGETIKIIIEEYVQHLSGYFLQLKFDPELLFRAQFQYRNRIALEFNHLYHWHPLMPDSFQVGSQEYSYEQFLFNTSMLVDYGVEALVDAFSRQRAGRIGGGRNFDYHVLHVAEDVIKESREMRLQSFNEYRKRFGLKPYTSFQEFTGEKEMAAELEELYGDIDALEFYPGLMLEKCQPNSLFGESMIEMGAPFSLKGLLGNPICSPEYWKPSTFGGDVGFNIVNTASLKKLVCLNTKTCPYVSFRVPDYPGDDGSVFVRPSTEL

[3] = biological target: 5-hydroxytryptamine receptor 2B (Homo sapiens, UniProt P41595); assay type: functional, cell-based
[4] = biological target: Sodium-dependent noradrenaline transporter (Homo sapiens, UniProt P23975)
[5] = biological target: 3',5'-cyclic-AMP phosphodiesterase 4D (Homo sapiens, UniProt Q08499); assay type: functional
Histamine H1 receptor = Histamine H1 receptor (Homo sapiens, UniProt P35367)
[6] = biological target: T3, Neuropeptide Y receptor type 1 (Homo sapiens, UniProt P25929)
T3 sequence (P25929 whole entry): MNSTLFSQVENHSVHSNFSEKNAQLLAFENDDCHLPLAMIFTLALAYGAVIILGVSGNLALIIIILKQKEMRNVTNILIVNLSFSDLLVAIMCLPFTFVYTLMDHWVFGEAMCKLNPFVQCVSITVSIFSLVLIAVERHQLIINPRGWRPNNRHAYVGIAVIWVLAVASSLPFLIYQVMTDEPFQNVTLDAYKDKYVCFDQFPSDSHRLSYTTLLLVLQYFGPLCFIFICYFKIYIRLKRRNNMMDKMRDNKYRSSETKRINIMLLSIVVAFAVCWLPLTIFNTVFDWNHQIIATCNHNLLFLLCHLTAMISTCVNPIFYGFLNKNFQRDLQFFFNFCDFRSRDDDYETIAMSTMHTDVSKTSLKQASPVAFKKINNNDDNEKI

Progesterone receptor = biological target: T4, Progesterone receptor (Homo sapiens, UniProt P06401); assay type: functional
T4 sequence (P06401 whole entry): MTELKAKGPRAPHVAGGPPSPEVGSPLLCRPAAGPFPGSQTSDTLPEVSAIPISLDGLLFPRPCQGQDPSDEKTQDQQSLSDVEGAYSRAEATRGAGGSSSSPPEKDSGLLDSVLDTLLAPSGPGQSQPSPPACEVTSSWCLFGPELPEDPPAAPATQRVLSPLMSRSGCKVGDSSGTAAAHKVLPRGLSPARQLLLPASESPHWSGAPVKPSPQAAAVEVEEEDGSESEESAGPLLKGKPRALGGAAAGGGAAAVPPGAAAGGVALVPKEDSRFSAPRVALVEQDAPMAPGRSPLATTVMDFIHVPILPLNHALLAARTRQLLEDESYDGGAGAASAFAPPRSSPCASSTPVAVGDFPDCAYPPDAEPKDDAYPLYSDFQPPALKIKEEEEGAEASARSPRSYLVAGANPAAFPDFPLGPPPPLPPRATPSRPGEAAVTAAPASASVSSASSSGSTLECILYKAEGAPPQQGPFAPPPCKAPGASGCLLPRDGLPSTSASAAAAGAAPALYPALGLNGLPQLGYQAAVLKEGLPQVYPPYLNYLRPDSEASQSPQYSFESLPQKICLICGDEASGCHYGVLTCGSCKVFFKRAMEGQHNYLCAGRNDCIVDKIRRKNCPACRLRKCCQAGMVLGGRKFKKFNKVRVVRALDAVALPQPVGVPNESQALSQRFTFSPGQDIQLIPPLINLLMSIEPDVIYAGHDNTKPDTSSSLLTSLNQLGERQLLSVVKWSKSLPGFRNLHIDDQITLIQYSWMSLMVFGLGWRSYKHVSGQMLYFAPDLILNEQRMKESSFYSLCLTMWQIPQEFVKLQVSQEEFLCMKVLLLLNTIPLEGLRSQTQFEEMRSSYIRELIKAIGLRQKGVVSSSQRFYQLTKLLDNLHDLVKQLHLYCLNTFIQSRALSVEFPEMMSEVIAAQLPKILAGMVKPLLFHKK
Note: assay procedure not described here.

Sequence of Histamine H1 receptor (P35367 whole entry): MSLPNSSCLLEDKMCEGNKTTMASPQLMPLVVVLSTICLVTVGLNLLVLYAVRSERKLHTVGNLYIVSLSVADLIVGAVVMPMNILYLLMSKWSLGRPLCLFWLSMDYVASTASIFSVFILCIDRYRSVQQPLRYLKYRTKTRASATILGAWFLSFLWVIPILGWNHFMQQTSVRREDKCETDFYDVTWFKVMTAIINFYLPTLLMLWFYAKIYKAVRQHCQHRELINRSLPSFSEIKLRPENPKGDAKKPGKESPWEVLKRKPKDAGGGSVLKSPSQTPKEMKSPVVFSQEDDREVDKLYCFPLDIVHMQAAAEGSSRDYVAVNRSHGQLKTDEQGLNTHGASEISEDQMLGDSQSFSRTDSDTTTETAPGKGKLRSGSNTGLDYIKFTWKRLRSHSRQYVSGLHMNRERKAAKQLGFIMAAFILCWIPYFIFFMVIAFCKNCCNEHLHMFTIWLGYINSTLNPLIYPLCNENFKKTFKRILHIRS
Sequence of 3',5'-cyclic-AMP phosphodiesterase 4D (Q08499 whole entry): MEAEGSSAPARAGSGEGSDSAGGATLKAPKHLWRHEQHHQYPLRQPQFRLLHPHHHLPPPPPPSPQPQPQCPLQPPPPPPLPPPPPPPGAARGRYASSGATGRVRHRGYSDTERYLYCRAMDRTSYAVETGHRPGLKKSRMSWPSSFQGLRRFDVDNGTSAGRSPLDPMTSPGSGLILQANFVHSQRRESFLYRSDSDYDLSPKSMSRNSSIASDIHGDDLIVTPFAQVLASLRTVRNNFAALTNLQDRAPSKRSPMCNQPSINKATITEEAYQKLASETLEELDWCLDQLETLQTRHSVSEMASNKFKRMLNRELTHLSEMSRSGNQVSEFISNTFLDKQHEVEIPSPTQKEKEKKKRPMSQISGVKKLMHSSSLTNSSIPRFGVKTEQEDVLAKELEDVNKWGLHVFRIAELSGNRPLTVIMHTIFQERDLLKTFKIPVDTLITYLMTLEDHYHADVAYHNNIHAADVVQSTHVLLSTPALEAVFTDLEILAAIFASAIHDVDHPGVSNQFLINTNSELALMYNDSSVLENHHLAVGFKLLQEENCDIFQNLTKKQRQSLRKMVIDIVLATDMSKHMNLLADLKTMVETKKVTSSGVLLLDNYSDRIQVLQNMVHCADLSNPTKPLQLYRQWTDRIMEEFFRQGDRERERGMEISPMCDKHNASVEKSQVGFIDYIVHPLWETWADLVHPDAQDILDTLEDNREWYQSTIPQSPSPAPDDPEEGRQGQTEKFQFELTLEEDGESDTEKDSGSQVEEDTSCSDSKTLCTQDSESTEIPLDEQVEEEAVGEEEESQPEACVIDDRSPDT
Sequence of 5-hydroxytryptamine receptor 2B (P41595 whole entry): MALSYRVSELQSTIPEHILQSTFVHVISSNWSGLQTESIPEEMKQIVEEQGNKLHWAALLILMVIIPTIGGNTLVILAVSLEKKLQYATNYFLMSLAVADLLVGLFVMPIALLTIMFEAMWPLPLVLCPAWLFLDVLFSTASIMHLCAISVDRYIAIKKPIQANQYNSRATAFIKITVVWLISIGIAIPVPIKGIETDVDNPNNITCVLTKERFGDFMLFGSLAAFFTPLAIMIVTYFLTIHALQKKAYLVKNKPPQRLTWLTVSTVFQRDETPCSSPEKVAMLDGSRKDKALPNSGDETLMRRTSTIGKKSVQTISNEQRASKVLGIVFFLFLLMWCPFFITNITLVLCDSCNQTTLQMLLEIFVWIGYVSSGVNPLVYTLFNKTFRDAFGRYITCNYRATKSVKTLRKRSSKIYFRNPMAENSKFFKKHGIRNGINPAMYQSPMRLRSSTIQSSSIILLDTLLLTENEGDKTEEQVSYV
Sequence of Sodium-dependent noradrenaline transporter (P23975 whole entry): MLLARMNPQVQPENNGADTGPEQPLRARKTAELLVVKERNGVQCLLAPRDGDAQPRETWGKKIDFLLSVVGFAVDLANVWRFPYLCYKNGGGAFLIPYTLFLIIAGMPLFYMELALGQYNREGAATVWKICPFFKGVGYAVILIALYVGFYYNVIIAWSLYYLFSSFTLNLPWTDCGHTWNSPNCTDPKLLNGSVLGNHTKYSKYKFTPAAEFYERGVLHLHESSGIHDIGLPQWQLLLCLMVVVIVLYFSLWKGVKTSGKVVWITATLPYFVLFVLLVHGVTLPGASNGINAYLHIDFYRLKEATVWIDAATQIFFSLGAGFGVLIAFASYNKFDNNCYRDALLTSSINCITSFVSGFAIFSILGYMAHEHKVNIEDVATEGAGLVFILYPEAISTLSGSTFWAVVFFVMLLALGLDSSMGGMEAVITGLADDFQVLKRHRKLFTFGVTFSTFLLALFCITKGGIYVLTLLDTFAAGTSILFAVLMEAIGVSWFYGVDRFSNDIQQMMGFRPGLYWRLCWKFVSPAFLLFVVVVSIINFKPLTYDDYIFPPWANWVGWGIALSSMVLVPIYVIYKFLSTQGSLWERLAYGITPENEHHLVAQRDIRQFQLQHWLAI
Sequence of D(1A) dopamine receptor (P21728 whole entry): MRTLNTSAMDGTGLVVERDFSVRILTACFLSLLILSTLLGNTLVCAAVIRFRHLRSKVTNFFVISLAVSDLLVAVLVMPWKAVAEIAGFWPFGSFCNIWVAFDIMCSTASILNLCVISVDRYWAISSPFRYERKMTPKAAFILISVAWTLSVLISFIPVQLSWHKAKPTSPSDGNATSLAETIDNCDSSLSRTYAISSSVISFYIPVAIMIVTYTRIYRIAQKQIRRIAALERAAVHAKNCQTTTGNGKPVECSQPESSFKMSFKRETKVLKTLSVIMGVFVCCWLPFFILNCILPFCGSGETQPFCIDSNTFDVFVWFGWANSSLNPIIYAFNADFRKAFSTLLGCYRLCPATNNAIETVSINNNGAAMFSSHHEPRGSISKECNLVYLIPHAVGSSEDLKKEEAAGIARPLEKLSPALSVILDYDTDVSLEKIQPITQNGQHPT

Row | SMILES | AC50 [1] | AC50 (D(1A) dopamine receptor) | AC50 [2] | AC50 [3] | AC50 [4] | AC50 [5] | AC50 (Histamine H1 receptor) | AC50 [6] | AC50 (Progesterone receptor)
1 | CO[C@@H]1[C@@H](O[C@@H]2O[C@H](C)[C@@H](O[C@H]3C[C@@](C)(O)[C@@H](OC(=O)CC(C)C)[C@H](C)O3)[C@H](N(C)C)[C@H]2O)[C@@H](CC=O)C[C@@H](C)[C@@H](O)/C=C/C=C/C[C@@H](C)OC(=O)C[C@H]1OC(C)=O [JOSAMYCIN] | > 30 µM | > 10 µM | > 10 µM | > 10 µM | > 10 µM | > 30 µM | > 10 µM | > 10 µM | > 10 µM
2 | CC(C)OC(=O)CCC/C=C\C[C@@H]1[C@@H](CC[C@@H](O)CCc2ccccc2)[C@H](O)C[C@@H]1O [LATANOPROST] | > 30 µM | > 30 µM | > 30 µM | > 30 µM | > 30 µM | > 30 µM | > 30 µM | > 30 µM | > 30 µM
3 | COC(=O)C1=C(C)NC(C)=C(C(=O)OC(C)(C)CN(C)CCC(c2ccccc2)c2ccccc2)C1c1cccc([N+](=O)[O-])c1 (configuration not stated) [LERCANIDIPINE] | > 30 µM | > 30 µM | 18.7 µM | > 30 µM | > 30 µM | > 30 µM | 6.4 µM | > 30 µM | > 30 µM
4 | CC(Oc1c(Cl)cccc1Cl)C1=NCCN1 (configuration not stated) [LOFEXIDINE] | > 30 µM | > 30 µM | > 30 µM | > 30 µM | > 30 µM | > 30 µM | > 30 µM | > 30 µM | > 30 µM
5 | CN1C(=O)C(O)N=C(c2ccccc2Cl)c2cc(Cl)ccc21 (configuration not stated) [LORMETAZEPAM] | > 30 µM | > 30 µM | > 10 µM | > 30 µM | > 30 µM | 5.6 µM | > 30 µM | > 30 µM | > 30 µM
6 | CC(C)=CCC/C(C)=C/C=C/C(C)=C/C=C/C(C)=C/C=C/C=C(C)/C=C/C=C(C)/C=C/C=C(\C)CCC=C(C)C [LYCOPENE] | > 30 µM | > 30 µM | > 30 µM | > 30 µM | > 30 µM | > 30 µM | > 30 µM | > 30 µM | > 30 µM
7 | Cc1cccc(C(C)c2cnc[nH]2)c1C (configuration not stated) [MEDETOMIDINE] | > 30 µM | > 30 µM | > 30 µM | > 30 µM | > 30 µM | > 30 µM | > 30 µM | > 30 µM | > 30 µM
8 | C[C@H](N)[C@H](O)c1cccc(O)c1 [METARAMINOL] | > 30 µM | > 30 µM | > 10 µM | 7.4 µM | > 10 µM | > 30 µM | > 10 µM | > 10 µM | > 10 µM
9 | CCC1(CC)C(=O)NCC(C)C1=O (configuration not stated) [METHYPRYLON] | > 30 µM | > 30 µM | > 30 µM | > 30 µM | > 30 µM | > 30 µM | > 30 µM | > 30 µM | > 30 µM
10 | O=C(O)[C@H](CC(=O)N1C[C@H]2CCCC[C@H]2C1)Cc1ccccc1 [MITIGLINIDE] | > 30 µM | > 10 µM | > 10 µM | > 10 µM | > 10 µM | > 30 µM | > 10 µM | > 10 µM | > 10 µM
11 | CCOC(=O)[N-]c1cn(N2CCOCC2)n[o+]1 [MOLSIDOMINE] | > 30 µM | > 30 µM | 24 µM | > 30 µM | > 30 µM | > 30 µM | > 30 µM | > 30 µM | > 30 µM
12 | OC(CNCC(O)C1CCc2cc(F)ccc2O1)C1CCc2cc(F)ccc2O1 (configuration not stated) [NEBIVOLOL] | > 30 µM | > 30 µM | > 30 µM | 8.8 µM | 1.5 µM | > 30 µM | > 30 µM | 24 µM | > 30 µM
13 | COc1ccc2c3c1O[C@H]1C(=O)CC[C@@]4(O)[C@@H](C2)N(C)CC[C@]314 [OXYCODONE] | > 30 µM | > 30 µM | > 30 µM | > 30 µM | > 30 µM | > 30 µM | > 30 µM | > 30 µM | > 30 µM
14 | CCCC(C)C1(CC)C(=O)NC(=O)NC1=O (configuration not stated) [PENTOBARBITAL] | > 30 µM | > 30 µM | > 10 µM | > 10 µM | > 10 µM | > 30 µM | > 30 µM | > 10 µM | > 10 µM
15 | O=C(O)C[C@H](O)C[C@H](O)/C=C/c1c(C2CC2)nc2ccccc2c1-c1ccc(F)cc1 [PITAVASTATIN] | > 30 µM | > 10 µM | > 30 µM | > 10 µM | > 30 µM | 0.93 µM and 0.67 µM | > 30 µM | > 10 µM | > 30 µM
16 | Clc1ccc(CCCOCCCN2CCCCC2)cc1 [PITOLISANT] | > 30 µM | > 30 µM | > 30 µM | > 30 µM | 13 µM | > 30 µM | 11 µM | > 30 µM | > 30 µM
17 | C#C[C@]1(O)CC[C@H]2[C@@H]3CCc4cc(OC5CCCC5)ccc4[C@H]3CC[C@@]21C [QUINESTROL] | > 30 µM | > 10 µM | > 10 µM | > 10 µM | > 10 µM | > 30 µM | > 10 µM | > 10 µM | 0.221 µM
18 | COC(=O)[C@H]1[C@H]2C[C@@H]3c4[nH]c5cc(OC)ccc5c4CCN3C[C@H]2C[C@@H](OC(=O)/C=C/c2cc(OC)c(OC)c(OC)c2)[C@@H]1OC [RESCINNAMINE] | > 30 µM | > 30 µM | 11.6 µM | > 10 µM | > 30 µM | > 30 µM | > 10 µM | > 10 µM | > 10 µM
